Test results taken from patent publication US20250002450A1, “CATIONIC STEROID COMPOUNDS, METHOD OF OBTAINING THEREOF, FORMULATIONS COMPRISING THEREOF AND THEIR USES” (UNIVERSIDADE DO PORTO, priority 2021, published 2025).
Values after ≈ are worked out from the molar mass of the structure shown.

Columns and labels:
Experiment in all cases: Antibacterial MIC/MBC (broth microdilution)
E. faecalis B3/101 (VRE) = format: cell-based, Enterococcus faecalis
Procedure, shortened: (§1)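 Visible growth inhibition after 20 h at 37 degrees C defines the MIC, with compounds tested at 0.062-64 μg/mL in Mueller-Hinton broth 2 against about 5×10^5 CFU/mL. Bactericidal endpoint: 99.9% reduction of the starting inoculum on MH agar subculture.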

[1] = system: Enterococcuss faecalis ATCC 29212; format: cell-based, Enterococcus faecalis
Procedure, shortened: as §1

[2] = system: Salmonella enterica serovar Typhimurium CECT 443; format: cell-based
Procedure, shortened: as §1

[3] = system: Yersinia ruckeri ATCC 29473; format: cell-based
Procedure, shortened: as §1

[4] = system: Listonella anguilarum ATCC 1924; format: cell-based
Procedure, shortened: as §1

[5] = system: Klebsiella pneumoniae ATCC 13883; format: cell-based; details: ATCC13883, Klebsiella pneumoniae ATCC 13883
Procedure, shortened: as §1

[6] = system: Staphylococcus aureus ATCC 29213; format: cell-based
Procedure, shortened: as §1

[7] = system: Pseudomonas aeruginosa ATCC 27853; format: cell-based; details: ATCC27853, Pseudomonas aeruginosa ATCC 27853
Procedure, shortened: as §1

[8] = system: Escherichia coli ATCC 25922; format: cell-based; details: ATCC25922, Escherichia coli ATCC 25922
Procedure, shortened: as §1

[9] = system: Acinetobacter baumannii ATCC 19606; format: cell-based
Procedure, shortened: as §1

S. aureus 66/1 (MRSA) = format: cell-based, Staphylococcus aureus; details: Staphylococcus aureus
Procedure, shortened: as §1

[10] = system: Streptococcuss pyogenes ATCC 19615; format: cell-based, Streptococcus pyogenes; details: Streptococcus pyogenes, ATCC19615, Streptococcuss pyogenes ATCC 19615
Procedure, shortened: as §1

C. jejuni P5/4 = format: cell-based, Campylobacter jejuni; details: Campylobacter jejuni
C. jejuni 4448 = format: cell-based, Campylobacter jejuni; details: Campylobacter jejuni
C. jejuni 4432 = format: cell-based, Campylobacter jejuni; details: Campylobacter jejuni
C. jejuni 4433 = format: cell-based, Campylobacter jejuni; details: Campylobacter jejuni

C[C@H](CCC(=O)N1CCN(C(=O)CC[C@H](C)[C@@H]2CC[C@@H]3[C@H]4CC[C@H]5C[C@@H](O)CC[C@@]5(C)[C@@H]4C[C@@H](O)[C@]32C)CC1)[C@H]1CC[C@H]2[C@@H]3CC[C@@H]4C[C@H](O)CC[C@]4(C)[C@H]3C[C@H](O)[C@]12C [Compound 4, (R)-4-((3R,5R,8R,9S,10S,12S,13R,14S,17R)-3,12-dihydroxy-10,13-dimethylhexadecahydro-1H-cyclopenta[a]phenanthren-17-yl)-1-(4-((S)-4-((3S,5S,8S,9R,10R,12R,13S,14R,17S)-3,12-dihydroxy-10,13-dimethylhexadecahydro-1H-cyclopenta[a]phenanthren-17-yl)pentanoyl)piperazin-1-yl) pentan-1-one]
antibacterial activity (in words) (E. faecalis B3/101 (VRE); E. faecalis B3/101): displayed the same effect
MBC (E. faecalis B3/101 (VRE); Enterococcus faecalis, E. faecalis B3/101 (VRE), read-out: MBC): > 64 mg/L
MIC (E. faecalis B3/101 (VRE); Enterococcus faecalis, E. faecalis B3/101 (VRE), read-out: MIC): 64 mg/L (≈ 76.6 µM)
antibacterial activity (in words) ([1]; E. faecalis ATCC 29212): exhibited antimicrobial activity
MBC ([1]; Enterococcus faecalis, ATCC29212, Enterococcuss faecalis ATCC 29212, read-out: MBC): 64 mg/L (≈ 76.6 µM)
MIC ([1]; Enterococcus faecalis, ATCC29212, Enterococcuss faecalis ATCC 29212, read-out: MIC): 64 mg/L (≈ 76.6 µM)
antibacterial activity (in words) [2]: exhibited antimicrobial activity
MBC ([2]; read-out: MBC): 64 mg/L (≈ 76.6 µM)
MIC ([2]; read-out: MIC): 64 mg/L (≈ 76.6 µM)
antibacterial activity (in words) [3]: displayed antibacterial activity
MBC ([3]; ATCC29473, read-out: MBC): 64 mg/L (≈ 76.6 µM)
MIC ([3]; ATCC29473, read-out: MIC): 64 mg/L (≈ 76.6 µM)
antibacterial activity (in words) ([4]; Listonella anguilarum): active
MBC ([4]; Listonella anguilarum ATCC 1924, read-out: MBC): 32 mg/L (≈ 38.3 µM)
MIC ([4]; Listonella anguilarum ATCC 1924, read-out: MIC): 32 mg/L (≈ 38.3 µM)
MBC ([5]; read-out: MBC): > 64 mg/L
MIC ([5]; read-out: MIC): > 64 mg/L
MBC ([6]; ATCC29213, read-out: MBC): > 64 mg/L
MIC ([6]; ATCC29213, read-out: MIC): 64 mg/L (≈ 76.6 µM)
MBC ([7]; read-out: MBC): > 64 mg/L
MIC ([7]; read-out: MIC): > 64 mg/L
MBC ([8]; read-out: MBC): > 64 mg/L
MIC ([8]; read-out: MIC): > 64 mg/L
antibacterial activity (in words) ([9]; A. baumannii ATCC 19606): displayed an inhibitory effect
MBC ([9]; ATCC19606, Acinetobacter baumannii ATCC 19606, read-out: MBC): 64 mg/L (≈ 76.6 µM)
MIC ([9]; ATCC19606, Acinetobacter baumannii ATCC 19606, read-out: MIC): 64 mg/L (≈ 76.6 µM)
MBC (S. aureus 66/1 (MRSA); read-out: MBC): > 64 mg/L
MIC (S. aureus 66/1 (MRSA); read-out: MIC): 64 mg/L (≈ 76.6 µM)
MBC ([10]; read-out: MBC): > 64 mg/L
MIC ([10]; read-out: MIC): > 64 mg/L
MBC (C. jejuni P5/4; read-out: MBC): > 64 mg/L
MIC (C. jejuni P5/4; read-out: MIC): > 64 mg/L
MBC (C. jejuni 4448; read-out: MBC): > 64 mg/L
MIC (C. jejuni 4448; read-out: MIC): > 64 mg/L
MBC (C. jejuni 4432; read-out: MBC): > 64 mg/L
MIC (C. jejuni 4432; read-out: MIC): > 64 mg/L
MBC (C. jejuni 4433; read-out: MBC): > 64 mg/L
MIC (C. jejuni 4433; read-out: MIC): > 64 mg/L
